Where two headings read alike, the source gives them in different places.
Tests used:
[1] = Log P measurement by HPLC on reversed phase columns (EEC directive 79/831 Annex V.A8); type: physicochemical; details: LC-UV; for chromatographic logP: reversed phase HPLC column
Protocol: [table] Measurement of Log P values was performed according to EEC directive 79/831 Annex V.A8 by HPLC (High Performance Liquid Chromatography) on reversed phase columns with the following methods: If more than one Log P value is available within the same method, all the values are given and separated by “+”. […] Lambda-max-values were determined using UV-spectra from 200 nm to 400 nm and the peak values of the chromatographic signals.

Phakopsora pachyrhizi = experiment: In vivo preventive test on Phakopsora (soybeans); design: species or system Phakopsora pachyrhizi (soybean rust) on soybeans; details: 168 h, young soybean plants sprayed, 10 ppm of active ingredient, evaluated 7 days after inoculation, 0% = untreated control, 100% = no disease, read-out: efficacy
Protocol: Example: In Vivo Preventive Test on Phakopsora Test (Soybeans)
To produce a suitable preparation of active compound, 1 part by weight of active compound is mixed with the stated amounts of solvent and emulsifier, and the concentrate is diluted with water to the desired concentration.
To test for preventive activity, young plants are sprayed with the preparation of active compound at the stated rate of application. After the spray coating has dried on, the plants are inoculated with an aqueous spore suspension of the causal agent of soybean rust (Phakopsora pachyrhizi) and stay for 24 h without light in an incubation cabinet at approximately 24° C. and a relative atmospheric humidity of 95%.
The plants remain in the incubation cabinet at approximately 24° C. and a relative atmospheric humidity of approximately 80% and a day/night interval of 12 h.
The test is evaluated 7 days after the inoculation. 0% means an efficacy which corresponds to that of the untreated control, while an efficacy of 100% means that no disease is observed.

[2] = acidic range, 0.1% formic acid in water and acetonitrile as eluent (linear gradient 10% to 95% acetonitrile), read-out: LogP [a]
[3] = neutral range, 0.001 molar ammonium acetate solution in water and acetonitrile as eluent (linear gradient 10% to 95% acetonitrile), read-out: LogP [b]
[4] = acidic range, 0.1% formic acid in water and acetonitrile as eluent (linear gradient 10% to 95% acetonitrile)
[5] = neutral range, 0.001 molar ammonium acetate solution in water and acetonitrile as eluent (linear gradient 10% to 95% acetonitrile)

SMILES | chromatographic logP [1, 2] | chromatographic logP [1, 3] | pest or weed control at 10 ppm (Phakopsora pachyrhizi) [%] | LogP [a] [1, 4] | LogP [b] [1, 5]
CCN(C)C=Nc1cc(Cl)c(Cc2ccccc2-c2ccccc2)cc1C [Example 25, N′-[5-chloro-2-methyl-4-[(2-phenylphenyl)methyl]phenyl]-N-ethyl-N-methylmethanimidamide] | 2.05 | 6.02 |  |  | 
CCN(C)C=Nc1cc(Cl)c(Cc2ccccc2Cl)cc1C [Example 30, N′-[5-chloro-4-[(2-chlorophenyl)methyl]-2-methylphenyl]-N-ethyl-N-methylmethanimidamide] | 1.81 | 5.55 | 90 to 100 |  | 
CCN(C)C=Nc1cc(F)c(Cc2ccccc2)cc1C [Example 20, N′-(4-benzyl-5-fluoro-2-methylphenyl)-N-ethyl-N-methylmethanimidamide] | 2 | 4.62 | 90 to 100 |  | 
CCN(C)C=Nc1cc(C)c(C2(c3ccccc3)CC2(Cl)Cl)cc1C (stereo not shown) [Example 15, N′-[4-(2,2-dichloro-1-phenylcyclopropyl)-2,5-dimethylphenyl]-N-ethyl-N-methylmethanimidamide] | 1.83 |  |  |  | 
Cc1cc(N=CN(C)C(C)C)c(C)cc1Cc1ccc(F)cc1F [Example 12, N′-[4-[(2,4-difluorophenyl)methyl]-2,5-dimethylphenyl]-N-isopropyl-N-methylmethanimidamide] | 1.92 | 5.31 | 90 to 100 |  | 
CCN(C)C=Nc1cc(Cl)c(Cc2ccccc2F)cc1C [Example 5] |  |  |  | 1.58[a]; | 2.99[b]
CCN(C)C=Nc1cc(C)c(Cc2ccccc2)cc1C [Example 11, N′-(4-benzyl-2,5-dimethylphenyl)-N-ethyl-N-methylmethanimidamide] | 1.58 | 4.9 | 90 to 100 |  | 
CCN(C)C=Nc1cc(Cl)c(Cc2ccccc2C#N)cc1C [Example 4, N′-[5-chloro-4-[(2-cyanophenyl)methyl]-2-methylphenyl]-N-ethyl-N-methylmethanimidamide] | 1.38 | 4.38 |  |  | 
CCN(C)C=Nc1cc(C)c(Cc2ccc(F)cc2F)cc1C [Example 9, N′-[4-[(2,4-difluorophenyl)methyl]-2,5-dimethylphenyl]-N-ethyl-N-methylmethanimidamide] | 1.79 | 4.86 | 90 to 100 |  | 
CCN(C)C=Nc1cc(C)c(Cc2ccccc2C#N)cc1Cl [Example 1, N′-[2-chloro-4-[(2-cyanophenyl)methyl]-5-methylphenyl]-N-ethyl-N-methylmethanimidamide] | 1.41 | 3.86 | 80 to 89 |  | 
CCN(C)C=Nc1cc(Cl)c(Cc2ccccc2)cc1C [Example 6, N′-(4-benzyl-5-chloro-2-methylphenyl)-N-ethyl-N-methylmethanimidamide] | 1.72 | 5.16 | 90 to 100 |  | 
CCN(C)C=Nc1cc(Cl)c(C(C)c2ccccc2)cc1C (stereo not shown) [Example 18, N′-[5-chloro-2-methyl-4-(1-phenylethyl)phenyl]-N-ethyl-N-methylmethanimidamide] | 1.58 | 5.32 | 90 to 100 |  | 
CCN(C)C=Nc1cc(F)c(Cc2ccccc2F)cc1C [Example 33, N-ethyl-N′-[5-fluoro-4-[(2-fluorophenyl)methyl]-2-methylphenyl]-N-methylmethanimidamide] | 1.41 | 4.37 |  |  | 
C=C(c1ccccc1)c1cc(C)c(N=CN(C)CC)cc1Cl [Example 19, N′-[5-chloro-2-methyl-4-(1-phenylethen-1-yl)phenyl]-N-ethyl-N-methylmethanimidamide] | 1.58 | 5.24 | 80 to 89 |  | 
CCN(C)C=Nc1cc(C)c(Cc2ccccc2C#N)cc1C [Example 8, N′-[4-[(2-cyanophenyl)methyl]-2,5-dimethylphenyl]-N-ethyl-N-methylmethanimidamide] | 1.47 | 4.15 | 90 to 100 |  | 
CCN(C)C=Nc1cc(C)c(C(C)c2ccccc2)cc1Cl (stereo not shown) [Example 27, N′-[2-chloro-5-methyl-4-(1-phenylethyl)phenyl]-N-ethyl-N-methylmethanimidamide] | 1.61 | 4.7 |  |  | 

SMILES | chromatographic logP [1, 2] | chromatographic logP [1, 3] | pest or weed control at 10 ppm (Phakopsora pachyrhizi) [%] | LogP [a] [1, 4] | LogP [b] [1, 5]
CCN(C)C=Nc1cc(C)c(Cc2ccccc2Cl)cc1Cl [Example 28, N′-[2-chloro-4-[(2-chlorophenyl)methyl]-5-methylphenyl]-N-ethyl-N-methylmethanimidamide] | 1.63 | 4.93 |  |  | 
CCN(C)C=Nc1cc(C)c(C2(c3ccccc3)CC2)cc1C [Example 13, N′-[2,5-dimethyl-4-(1-phenylcyclopropyl)phenyl]-N-ethyl-N-methylmethanimidamide] | 1.85 |  | 90 to 100 |  | 
CCN(C)C=Nc1cc(C)c(Cc2ccc(F)cc2F)cc1Cl [Example 21, N′-[2-chloro-4-[(2,4-difluorophenyl)methyl]-5-methylphenyl]-N-ethyl-N-methylmethanimidamide] | 1.86 | 4.6 | 90 to 100 |  | 
CCN(C)C=Nc1cc(Cl)c(Cc2ccccc2C)cc1C [Example 23, N′-[5-chloro-2-methyl-4-[(2-methylphenyl)methyl]phenyl]-N-ethyl-N-methylmethanimidamide] | 1.66 | 5.54 | 90 to 100 |  | 
CCN(C)C=Nc1cc(C)c(Cc2ccccc2)cc1Cl [Example 3, N′-(4-benzyl-2-chloro-5-methylphenyl)-N-ethyl-N-methylmethanimidamide] | 1.49 |  | 90 to 100 |  | 
CCN(C)C=Nc1cc(Cl)c(Cc2ccc(F)cc2F)cc1C [Example 22, N′-[5-chloro-4-[(2,4-difluorophenyl)methyl]-2-methylphenyl]-N-ethyl-N-methylmethanimidamide] | 1.63 |  | 90 to 100 |  | 
CCN(C)C=Nc1cc(C)c(Cc2ccccc2Cl)cc1C [Example 7, N′-[4-[(2-chlorophenyl)methyl]-2,5-dimethylphenyl]-N-ethyl-N-methylmethanimidamide] | 1.92 | 5.16 |  |  | 
CCN(C)C=Nc1cc(F)c(Cc2ccc(F)cc2F)cc1C [Example 35, N′-[4-[(2,4-difluorophenyl)methyl]-5-fluoro-2-methylphenyl]-N-ethyl-N-methylmethanimidamide] | 1.52 | 4.54 |  |  | 
CCN(C)C=Nc1cc(Cl)c(Cc2ccccc2OC)cc1C [Example 29] |  |  |  | 1.58^[a]; | 4.95^[b]
CCN(C)C=Nc1cc(F)c(C(C)c2ccccc2)cc1C (stereo not shown) [Example 34, N-ethyl-N′-[5-fluoro-2-methyl-4-(1-phenylethyl)phenyl]-N-methylmethanimidamide] | 1.55 | 4.63 |  |  | 
CCN(C)C=Nc1cc(C)c(Cc2ccccc2OC)cc1Cl [Example 26, N′-[2-chloro-4-[(2-methoxyphenyl)methyl]-5-methylphenyl]-N-ethyl-N-methylmethanimidamide] | 1.53 | 4.45 |  |  | 
CCN(C)C=Nc1cc(F)c(Cc2ccccc2OC)cc1C [Example 32, N-ethyl-N′-[5-fluoro-4-[(2-methoxyphenyl)methyl]-2-methylphenyl]-N-methylmethanimidamide] | 1.46 | 4.34 |  |  | 
CCN(C)C=Nc1cc(C)c(Cc2ccccc2F)cc1C [Example 10, N-ethyl-N′-[4-[(2-fluorophenyl)methyl]-2,5-dimethylphenyl]-N-methylmethanimidamide] | 1.6 | 4.87 | 90 to 100 |  | 
CCN(C)C=Nc1cc(Cl)c(Cc2cccc(F)c2F)cc1C [Example 24, N′-[5-chloro-4-[(2,3-difluorophenyl)methyl]-2-methylphenyl]-N-ethyl-N-methylmethanimidamide] | 1.63 | 4.92 | 90 to 100 |  | 
CCN(C)C=Nc1cc(C)c(C2(c3ccccc3)CC2(Br)Br)cc1C (stereo not shown) [Example 16, N′-[4-(2,2-dibromo-1-phenylcyclopropyl)-2,5-dimethylphenyl]-N-ethyl-N-methylmethanimidamide] | 1.89 |  |  |  | 
C=C(c1ccccc1)c1cc(Cl)c(N=CN(C)CC)cc1C [Example 31, N′-[2-chloro-5-methyl-4-(1-phenylethen-1-yl)phenyl]-N-ethyl-N-methylmethanimidamide] | 1.66 | 4.93 |  |  | 

From patent US20190308933A1, “PHENYLAMIDINES AND THE USE THEREOF AS FUNGICIDES” (priority 2016, published 2019)
